Laboratory results taken from patent US12274761B2, “Compositions and methods to detect GLUA1 in brain and to identify the presence of GLUA1-mediated PTSD” (Neurovation Labs, Inc., priority 2016, dated 2025).
“Also recorded” adds a separate entry of the source.

Experiments:
[1] = test system: GluN1 subunit of the N-methyl-D-aspartate receptor (NMDAR); experiment: Western blot of GluN1 protein in the BLA after SEFL trauma; assay type: in vivo; settings: measured three weeks after the trauma; stressed and unstressed rats
Protocol: (§1) FIGS. 1B-D depict representative Western blot images and graphs of relative optical density ratios (±standard error of the mean (SEM)) of GluA1, GluA2, and GluN1, respectively, and a glyceraldehyde 3-phosphate dehydrogenase (GAPDH) control. […] Glutamate receptor protein changes were measured three weeks after the initial trauma via Western blotting. While the GluA2 subunit of the AMPAR and the GluN1 subunit of the N-methyl-D-aspartate receptor (NMDAR) remained unchanged after trauma, GluA1 increased substantially.
(§2) FIG. 1A illustrates an experimental design using SEFL (7, 8). Protein levels were measured using Western blot, an analytical technique to detect specific proteins in tissue samples.
FIG. 1D depicts representative Western blot images of GluN1 and GAPDH from the BLA of stressed and unstressed rats, measured three weeks after the trauma.

[2] = test system: Stress-Enhanced Fear Learning (SEFL); experiment: Stress-Enhanced Fear Learning (SEFL), a rodent model of PTSD: freezing in Context B; assay type: in vivo, rats
Description: FIG. 1A illustrates an experimental design for Stress-Enhanced Fear Learning (SEFL), a rodent model of PTSD. FIG. 2A illustrates an abbreviated SEFL experimental design. […] FIG. 3A illustrates a SEFL experimental design. […] FIG. 2C depicts representative Western blot images of GluA1 and GAPDH from the BLA of stressed/MSO and stressed/ASO rats. FIG. 2D depicts mean GluA1: GAPDH optical density ratios (±SEM) from the BLA of stressed/MSO and stressed/ASO rats. […] FIG. 2E depicts mean (±SEM) percent freezing in Context B on Day 3. […] FIG. 3C depicts mean freezing (±SEM) in Context B on Day 3.

[3] = test system: GluA2 subunit of the AMPAR; experiment: Western blot of GluA2 protein in the BLA after SEFL trauma; assay type: in vivo; settings: measured three weeks after the trauma; stressed and unstressed rats
Protocol: as §1, §2
FIG. 1C depicts representative Western blot images of GluA2 and GAPDH from the BLA of stressed and unstressed rats, measured three weeks after the trauma.

[4] = test system: GluA1 protein in the basolateral amygdala (BLA); experiment: Western blot of GluA1 protein in the BLA after SEFL trauma; assay type: in vivo; settings: metyrapone given before the trauma, measured three weeks after the trauma, stressed rats
Protocol: FIG. 1A illustrates an experimental design for Stress-Enhanced Fear Learning (SEFL), a rodent model of PTSD.
as §1, §2
FIG. 1B depicts representative Western blot images of GluA1 and a control, GAPDH, from the BLA of stressed and unstressed rats, measured three weeks after the trauma.
Because GluA1 increases are observed weeks after the trauma, post-trauma GluA1 ASO infusions directly into the BLA prevented sensitized fear responses usually observed in SEFL (FIGS. 2A-E) (5). […] FIG. 2C depicts representative Western blot images of GluA1 and GAPDH from the BLA of stressed/MSO and stressed/ASO rats. […]

SMILES	GluN1: GAPDH optical density ratios in the BLA (GluN1 levels) [1]	SEFL (stress-enhanced fear learning) ([2]; given before the trauma)	GluA2: GAPDH optical density ratios in the BLA (GluA2 levels) [3]	GluA1: GAPDH optical density ratios in the BLA [4]	GluA1: GAPDH optical density ratios in the BLA ([4]; listed as metyrapone)	percent freezing in Context B on Day 3 (sensitized fear, SEFL) ([2]; intra-BLA infusion after the 15-shock stressor (post-trauma), compared with stressed controls, hydrobromide)
CC(C)(C(=O)c1cccnc1)c1cccnc1 [Metyrapone]	Neither stress nor metyrapone had an effect on GluN1 levels	effectively preventing SEFL	Neither stress nor metyrapone had an effect on GluA2 levels	prevented GluA1 increases and conferred levels to that of unstressed controls	GluA1 protein levels in the BLA were significantly higher in stressed rats than in unstressed rats and metyrapone-treated rats	
Br.C[N+](C)(C)CCCCCNCC12CC3CC(CC(C3)C1)C2.[Br-] [IEM-1460, N,N,H,-Trimethyl-5-[(tricyclo[3.3.1.13,7]dec-1-ylmethyl)amino]-1-pentanaminiumbromide hydrobromide]						significantly reduces freezing in Context B; also recorded: attenuate SEFL
